Assay results published in the supplement of paper PMC11208160.

Assay: recombinant barcode read abundance after kanamycin selection (control-corrected) (log10(CPM+1)); higher = more efficient recombination; sequences stand for … in AGTGCAGAGAAAATCGGCCAGTTTTCTCTGCCTGCAGTCCGCATGCCGT…AGATTTATGCAGCGGACTGCCTTTCTCCCAAAGTGATAAACCGGACAGTATCATGGACCGGTTTTCCCGGTAATCCGTATTTGCAAGGTTGGTTTCACT; site = the 11-nt target
Summary of the method: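 Oligos holding a promoter, target, barcode and the J23119-driven first 104 bases of the bridge RNA were Gibson-cloned into a vector that supplied the other 73 bp plus a T7-inducible recombinase. This library was co-electroporated with a donor plasmid into E. coli. Two replicates went on chloramphenicol/ampicillin LB agar (control) and two on chloramphenicol/ampicillin/kanamycin with 0.1 mM IPTG. Recombination efficiency is read from averaged, control-corrected barcode counts per million at recombinant junctions, reported as log10(CPM+1).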
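Note: IS621 recombinase and bridge RNA in Escherichia coli cells.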

Row | Sequence | recombinant barcode read abundance (log10)
1 | GTCGTCCCTTGGGTTCTAACCTGTTGCCT (site GTCGTCGCTAG) | 0.0602
2 | GTCGTCCCTTGGGTTCTAACCTGTTGCCT (site GTCGTCTCTAG) | 0.0914
3 | GTCGTCTCTTGGGTTCTAACCTGTTGCCT (site GTCGTCACTAG) | 0.0143
4 | GTCGTCTCTTGGGTTCTAACCTGTTGCCT (site GTCGTCCCTAG) | 0.463
5 | GTCGTCTCTTGGGTTCTAACCTGTTGCCT (site GTCGTCGCTAG) | 0.136
6 | GTCGTCTCTTGGGTTCTAACCTGTTGCCT (site GTCGTCTCTAG) | 1.65
7 | GTCGTTACTTGGGTTCTAACCTGTTGCCT (site GTCGTTACTAG) | 0.339
8 | GTCGTTACTTGGGTTCTAACCTGTTGCCT (site TAGCAATCTTA) | 0.22
9 | GTCGTTCCTTGGGTTCTAACCTGTTGCCT (site GTAGTTCCTAG) | 0.535
10 | GTCGTTCCTTGGGTTCTAACCTGTTGCCT (site GTCGTTCCTAG) | 0.153
11 | GTCTAGGCTTGGGTTCTAACCTGTTGCTG (site GCCGAGGCTCA) | 0.242
12 | GTCTAGGCTTGGGTTCTAACCTGTTGCTG (site GTCTAGGCTCA) | 0.876
13 | GTCTATACTTGGGTTCTAACCTGTTGCCA (site GTCTATACTTG) | 0.571
14 | GTCTATACTTGGGTTCTAACCTGTTGCCA (site TTCTAGACTTG) | 0.0838
15 | GTCTATACTTGGGTTCTAACCTGTTGCCT (site GTATATACTAG) | 0.168
16 | GTCTATACTTGGGTTCTAACCTGTTGCCT (site GTCTATACTAG) | 0.987

Row | Sequence | recombinant barcode read abundance (log10)
17 | GTCTATACTTGGGTTCTAACCTGTTGCCT (site GTGTATACTAG) | 0.0645
18 | GTCTATACTTGGGTTCTAACCTGTTGCCT (site GTTTATACTAG) | 0.311
19 | GTCTATGCTTGGGTTCTAACCTGTTGCGT (site GTCTAAGCTAA) | 0.0746
20 | GTCTATGCTTGGGTTCTAACCTGTTGCGT (site GTCTATGCTAC) | 0.0203
21 | GTCTCCTCTTGGGTTCTAACCTGTTGCCT (site GTCACCTCTAG) | 0.0265
22 | GTCTCCTCTTGGGTTCTAACCTGTTGCCT (site GTCCCCTCTAG) | 2.26
23 | GTCTCCTCTTGGGTTCTAACCTGTTGCCT (site GTCGCCTCTAG) | 0.0306
24 | GTCTCCTCTTGGGTTCTAACCTGTTGCCT (site GTCTCCTCTAG) | 1.62
25 | GTCTCTACTTGGGTTCTAACCTGTTGCCT (site GCCTCTTCTAG) | 0.0271
26 | GTCTCTACTTGGGTTCTAACCTGTTGCCT (site GTCTCTACTAG) | 0.221
27 | GTGAACTCTTGGGTTCTAACCTGTTGCTG (site GTGAACTCTCA) | 2.33
28 | GTGAACTCTTGGGTTCTAACCTGTTGCTG (site GTGATCCCTCA) | 0.0703
29 | GTGACTGCTTGGGTTCTAACCTGTTGCGT (site CACTAGACTCG) | 0.0198
30 | GTGACTGCTTGGGTTCTAACCTGTTGCGT (site GTGACTGCTAC) | 1.46
31 | GTGAGGTCTTGGGTTCTAACCTGTTGCAT (site GTGAGGTCTAA) | 0.46
32 | GTGAGGTCTTGGGTTCTAACCTGTTGCAT (site GTGAGGTCTAC) | 0.709
